Laboratory results reported in ChEMBL document CHEMBL5512696, “Discovery of a Novel ASM Direct Inhibitor with a 1,5-Diphenyl-pyrazole Scaffold and Its Antidepressant Mechanism of Action” (J Med Chem, 2024).
Active and inactive are the calls of the source.

Columns and labels:
Format in all cases: functional, organism-based
Conditions in all cases: time 2.0 weeks
[1] = system: Mus musculus; assay: (§1) Antidepressant activity in ICR mouse model of chronic unpredictable mild stress assessed as reduction in sphingomyelin level in cerebral cortex at 12 mg/kg, ip administered once a day for 1 week post 8 week of chronic unpredictable mild stress and measured after 1 week by ELISA
[2] = system: Mus musculus; assay: Antineuroinflammatory activity in ICR mouse model of chronic unpredictable mild stress assessed as reduction in TNFalpha level in serum at 12 mg/kg, ip administered once a day for 1 week post 8 week of chronic unpredictable mild stress and measured after 1 week by ELISA
[3] = system: Mus musculus; assay: Antineuroinflammatory activity in ICR mouse model of chronic unpredictable mild stress assessed as reduction in IL-6 level in serum at 12 mg/kg, ip administered once a day for 1 week post 8 week of chronic unpredictable mild stress and measured after 1 week by ELISA
[4] = system: Mus musculus; assay: Antidepressant activity in ICR mouse model of chronic unpredictable mild stress assessed as reduction in sphingosine-1-phosphate level in cerebral cortex at 12 mg/kg, ip administered once a day for 1 week post 8 week of chronic unpredictable mild stress and measured after 1 week by ELISA
[5] = system: Mus musculus; assay: Antidepressant activity in ICR mouse model of chronic unpredictable mild stress assessed as downregulation of neuronal apoptosis by measuring increase in BDNF protein level in hippocampus at 12 mg/kg, ip administered once a day for 1 week post 8 week of chronic unpredictable mild stress and measured after 1 week by Western blot analysis
[6] = system: Mus musculus; assay: as §1, with “oxidative stress by measuring reduction in MDA” for “sphingomyelin”
[7] = system: Mus musculus; assay: In vivo inhibition of ASM in ICR mouse model of chronic unpredictable mild stress assessed as increase in 5-HT uptake in hippocampus at 12 mg/kg, ip administered once a day for 1 week post 8 week of chronic unpredictable mild stress and measured after 1 week by ELISA
[8] = system: Mus musculus; assay: Antineuroinflammatory activity in ICR mouse model of chronic unpredictable mild stress assessed as reduction in IL-1beta level in serum at 12 mg/kg, ip administered once a day for 1 week post 8 week of chronic unpredictable mild stress and measured after 1 week by ELISA
[9] = system: Mus musculus; assay: Antidepressant activity in ICR mouse model of chronic unpredictable mild stress assessed as reduction in sphingosine-1-phosphate level in hippocampus at 12 mg/kg, ip administered once a day for 1 week post 8 week of chronic unpredictable mild stress and measured after 1 week by ELISA

CNCCC(Oc1ccc(C(F)(F)F)cc1)c1ccccc1 (centres undefined)
active: Activity [1] | Activity [2] | Activity [3] | Activity [4] | Activity [5] | Activity [6] | inhibition [7] | Activity [8] | Activity [9]
